Measurements published in patent US10457687B2, “Aminoacid derivatives, a process for their preparation and pharmaceutical compositions containing them” (LES LABORATOIRES SERVIER, priority 2015, dated 2019).

Target: Mcl-1 protein (Homo sapiens, UniProt Q07820)
Assay: Inhibition of Mcl-1 by the fluorescence polarisation technique (Method 1 or Method 2)
Assay type: binding
Settings: for IC50: fluorescence polarisation, Fluorescein labelled ligand, Method 1 (not underlined) or Method 2 (underlined), read-out: IC50 (μM) Mcl-1 FP; for percentage fluorescence polarisation inhibition, Mcl-1 FP: partial inhibitors
Summary of the method: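 Binding measured by FP, with Mcl-1 protein and fluorescein-labelled ligand mixed with compounds in an 11-point series at 5% final DMSO. Method 2 used 10 nM each of protein and ligand in phosphate buffer (20 mM Na2HPO4, 1 mM EDTA, 50 mM NaCl, pH 7.4); Method 1 used 5 nM protein, 1 nM ligand in HEPES buffer (10 mM HEPES, 150 mM NaCl, 0.05% Tween 20, pH 7.4).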

Chain of Mcl-1 protein (Q07820 whole entry): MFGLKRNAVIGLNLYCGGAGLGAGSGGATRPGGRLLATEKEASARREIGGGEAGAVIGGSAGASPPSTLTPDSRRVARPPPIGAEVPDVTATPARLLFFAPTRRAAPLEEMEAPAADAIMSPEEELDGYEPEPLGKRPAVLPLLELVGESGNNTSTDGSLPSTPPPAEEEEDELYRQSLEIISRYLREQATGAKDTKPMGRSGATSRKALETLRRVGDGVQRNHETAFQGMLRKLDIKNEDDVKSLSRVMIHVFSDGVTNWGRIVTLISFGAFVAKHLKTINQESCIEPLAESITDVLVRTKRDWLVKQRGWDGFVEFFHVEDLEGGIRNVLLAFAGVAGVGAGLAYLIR

Compound	IC50 [µM]	also measured
CCc1sc2ncnc(NC(Cc3ccccc3F)C(=O)O)c2c1-c1cccc2ccccc12 [Example 181, N-[6-ethyl-(5Sa)-5-(naphthalen-1-yl)thieno[2,3-d]pyrimidin-4-yl]-2-fluoro-D-phenylalanine]	0.299	–
CCc1sc2ncnc(N[C@H](Cc3ccccc3OC)C(=O)O)c2c1-c1cccc2ccccc12 [Example 182, N-[6-ethyl-5-(naphthalen-1-yl)thieno[2,3-d]pyrimidin-4-yl]-2-methoxy-D-phenylalanine]	0.407	–
CCc1sc2ncnc(N[C@H](Cc3ccccc3Cl)C(=O)O)c2c1-c1cccc2ccccc12 [Example 183, 2-chloro-N-[6-ethyl-5-(naphthalen-1-yl)thieno[2,3-d]pyrimidin-4-yl]-D-phenylalanine]	2.04	–
CCc1sc2ncnc(N[C@H](Cc3c[nH]c4ccccc34)C(=O)O)c2c1-c1cccc2ccccc12 [Example 184, N-[6-ethyl-(5Ra)-5-(naphthalen-1-yl)thieno[2,3-d]pyrimidin-4-yl]-D-tryptophan]	–	percentage fluorescence polarisation inhibition, Mcl-1 FP (@ 200 μM test compound): 76.8% @ 200 μM
CCc1sc2ncnc(NC(Cc3c[nH]c4ccccc34)C(=O)O)c2c1-c1cccc2ccccc12 [Example 185, N-[6-ethyl-(5Sa)-5-(naphthalen-1-yl)thieno[2,3-d]pyrimidin-4-yl]-D-tryptophan]	2.53	–
CCc1sc2ncnc(N[C@H](Cc3c[nH]cn3)C(=O)O)c2c1-c1cccc2ccccc12 [Example 190, N-[6-ethyl-5-(naphthalen-1-yl)thieno[2,3-d]pyrimidin-4-yl]-D-histidine]	34.6	–
CCc1sc2ncnc(N[C@H](Cc3ccccn3)C(=O)O)c2c1-c1cccc2ccccc12 [Example 191, N-[6-ethyl-5-(naphthalen-1-yl)thieno[2,3-d]pyrimidin-4-yl]-3-pyridin-2-yl-D-alanine]	0.171	–
CCc1sc2ncnc(N[C@H](Cc3cccnc3)C(=O)O)c2c1-c1cccc2ccccc12 [Example 192, N-[6-ethyl-5-(naphthalen-1-yl)thieno[2,3-d]pyrimidin-4-yl]-3-pyridin-3-yl-D-alanine]	2.08	–
CCc1sc2ncnc(N[C@H](Cc3ccncc3)C(=O)O)c2c1-c1cccc2ccccc12 [Example 193, N-[6-ethyl-5-(naphthalen-1-yl)thieno[2,3-d]pyrimidin-4-yl]-3-pyridin-4-yl-D-alanine]	36.5	–
CCc1sc2ncnc(N[C@H](Cc3cn(C)cn3)C(=O)O)c2c1-c1cccc2ccccc12 [Example 194, N-[6-ethyl-5-(naphthalen-1-yl)thieno[2,3-d]pyrimidin-4-yl]-1-methyl-D-histidine]	1.75	–
CCc1sc2ncnc(N[C@H](Cc3cn(Cc4ccccc4)cn3)C(=O)O)c2c1-c1cccc2ccccc12 [Example 195, 1-benzyl-N-[6-ethyl-5-(naphthalen-1-yl)thieno[2,3-d]pyrimidin-4-yl]-D-histidine]	14.2	–
Cc1sc2ncnc(N[C@H](Cc3ccccc3)C(=O)O)c2c1-c1cccc2ccccc12 [Example 196, N-[6-methyl-5-(naphthalen-1-yl)thieno[2,3-d]pyrimidin-4-yl]-D-phenylalanine]	2.91	–
O=C(O)[C@@H](Cc1ccccc1)Nc1ncnc2sc(CO)c(-c3cccc4ccccc34)c12 [Example 197, N-[6-(hydroxymethyl)-(5Ra)-5-(naphthalen-1-yl)thieno[2,3-d]pyrimidin-4-yl]-D-phenylalanine]	–	percentage fluorescence polarisation inhibition, Mcl-1 FP (@ 200 μM test compound): 54.1% @ 200 μM
O=C(O)C(Cc1ccccc1)Nc1ncnc2sc(CO)c(-c3cccc4ccccc34)c12 [Example 198, N-[6-(hydroxymethyl)-(5Sa)-5-(naphthalen-1-yl)thieno[2,3-d]pyrimidin-4-yl]-D-phenylalanine]	9.86	–
CC(=O)c1sc2ncnc(NC(Cc3ccccc3)C(=O)O)c2c1-c1cccc2ccccc12 [Example 199, N-[6-acetyl-(5Sa)-5-(naphthalen-1-yl)thieno[2,3-d]pyrimidin-4-yl]-D-phenylalanine]	0.298	–
CC(=O)c1sc2ncnc(NC(Cc3ccccc3)C(=O)O)c2c1-c1cccc2ccccc12 [Example 200, N-[6-acetyl-(5Ra)-5-(naphthalen-1-yl)thieno[2,3-d]pyrimidin-4-yl]-D-phenylalanine]	5.44	–
CC(C)(O)c1sc2ncnc(NC(Cc3ccccc3)C(=O)O)c2c1-c1cccc2ccccc12 [Example 209, N-[6-(2-hydroxypropan-2-yl)-(5Ra)-5-(naphthalen-1-yl)thieno[2,3-d]pyrimidin-4-yl]-D-phenylalanine]	–	percentage fluorescence polarisation inhibition, Mcl-1 FP (@ 200 μM test compound): 56.85% @ 200 μM
CC(C)(O)c1sc2ncnc(NC(Cc3ccccc3)C(=O)O)c2c1-c1cccc2ccccc12 [Example 210, N-[6-(2-hydroxypropan-2-yl)-(5Sa)-5-(naphthalen-1-yl)thieno[2,3-d]pyrimidin-4-yl]-D-phenylalanine]	8.36	–
O=C(O)[C@@H](Cc1ccccc1)Nc1ncnc2sc(I)c(-c3cccc4ccccc34)c12 [Example 211, N-[6-iodo-5-(naphthalen-1-yl)thieno[2,3-d]pyrimidin-4-yl]-D-phenylalanine]	0.668	–
Cc1c(Cl)cccc1-c1c(C2CC2)sc2ncnc(NC(Cc3ccccc3)C(=O)O)c12 [Example 216, N-[(5Ra)-5-(3-chloro-2-methylphenyl)-6-cyclopropyl-thieno[2,3-d]pyrimidin-4-yl]-D-phenylalanine]	–	percentage fluorescence polarisation inhibition, Mcl-1 FP (@ 10 μM test compound): 58.95% @ 10 μM
Cc1c(Cl)cccc1-c1c(C2CC2)sc2ncnc(NC(Cc3ccccc3)C(=O)O)c12 [Example 217, N-[(5Sa)-5-(3-chloro-2-methylphenyl)-6-cyclopropyl-thieno[2,3-d]pyrimidin-4-yl]-D-phenylalanine]	0.065	–
Cc1c(Cl)cccc1-c1c(C(C)C)sc2ncnc(N[C@@H](Cc3ccccc3)C(=O)O)c12 [Example 218, N-[(5Sa)-5-(3-chloro-2-methylphenyl)-6-(propan-2-yl)thieno[2,3-d]pyrimidin-4-yl]-L-phenylalanine]	–	percentage fluorescence polarisation inhibition, Mcl-1 FP (@ 50 μM test compound): 71.5% @ 50 μM
Cc1c(Cl)cccc1-c1c(C(C)C)sc2ncnc(N[C@H](Cc3ccccc3)C(=O)O)c12 [Example 220, N-[(5Ra)-5-(3-chloro-2-methylphenyl)-6-(propan-2-yl)thieno[2,3-d]pyrimidin-4-yl]-D-phenylalanine]	–	percentage fluorescence polarisation inhibition, Mcl-1 FP (@ 10 μM test compound): 31.7% @ 10 μM
COc1ccccc1C[C@@H](Nc1ncnc2sc(C(C)C)c(-c3cccc(Cl)c3C)c12)C(=O)O [Example 222, N-[(5Ra)-5-(3-chloro-2-methylphenyl)-6-(propan-2-yl)thieno[2,3-d]pyrimidin-4-yl]-2-methoxy-D-phenylalanine]	–	percentage fluorescence polarisation inhibition, Mcl-1 FP (@ 50 μM test compound): 70% @ 50 μM
COc1ccccc1CC(Nc1ncnc2sc(C(C)C)c(-c3cccc(Cl)c3C)c12)C(=O)O [Example 223, N-[(5Sa)-5-(3-chloro-2-methylphenyl)-6-(propan-2-yl)thieno[2,3-d]pyrimidin-4-yl]-2-methoxy-D-phenylalanine]	0.086	–
CCc1sc2ncnc(NC(Cc3ccccc3)C(=O)O)c2c1-c1cccc2c1c(Cl)cn2CCN(C)C [Example 230, N-((5Sa)-5-{3-chloro-1l-[2-(dimethylamino)ethyl]-1H-indol-4-yl}-6-ethyl-thieno[2,3-d]pyrimidin-4-yl)-D-phenylalanine]	3.24	–
